| melting point | SMILES |
| --- | --- |
| 221 to 225 °C | CN(C)C=Nc1[nH]nc(-c2cccc([N+](=O)[O-])c2)c1C#N |
| 98 to 99 °C | CCOC(=O)/C=C/c1c(C)nn(Cc2ccc(OCc3nc(-c4ccccc4)oc3C)cc2)c1C |
| 118 to 119 °C | CN(C)C=C(C#N)C(=O)c1ccsc1 |
| 188 to 189 °C | Cc1cccc(-c2nc3cccnn3c2-c2ccnc(N)c2)c1 |
| 175 to 176 °C | C#CCOc1ccc2c(c1)nc(N)c1nc(COCC)n(CC(C)(C)NS(C)(=O)=O)c12 |
| 50.5 to 51.5 °C | COC(=O)c1c(C(F)F)nc(C(F)(F)F)c(C(=O)OC)c1CSC |
| 164 to 166 °C | COc1cc(OC)nc(NC(=O)NS(=O)(=O)c2ccccc2C2CCOC2=O)n1 (stereo unspecified) |
| 88 to 89 °C | Cc1ccccc1Cc1cccnn1 |
| 116 °C | O=C1c2ccccc2C(=O)N1CCCCOc1cccc2c1SCCC2 |
| 108 to 112 °C | CC(C)(COc1ccc([N+](=O)[O-])cc1)N1CC(COc2cccc(Cl)c2)OC1=O (stereo unspecified) |
| 147 °C | Cc1ccc(S(=O)(=O)OCCOc2ccc(Nc3ncc(C#N)c(-c4ccccc4)n3)cc2)cc1 |
| 55 to 65 °C | COC(=O)C(NC(=O)C1CCCS1)C(C)C (stereo unspecified) |
| 102 to 103 °C | CN(C)S(=O)(=O)CS(=O)(=O)c1ccccc1 |
| 139 to 141 °C | Cc1c(Cc2cccc(C(F)(F)F)c2)oc2cccc(-c3cccc(C(=O)NCCO)c3)c12 |
| 110 to 112 °C | CCc1cc2nc(N)c(-c3ccccc3)cc2c(CC)n1 |
| 152 to 153 °C | O=C(c1ccc(F)cc1)c1cccnc1C(=O)O |
| 121 to 123 °C | FC(F)(F)Oc1ccc(-c2ccc(C=CCBr)cc2)cc1 |
| 112 °C | CC1(C)CC(=O)C(SCc2ccc(F)cc2)=C(O)C1 |
| 174 to 177 °C | O=S(CCCCCOc1ccc(C2=C(c3ccccc3)CCCc3cc(O)ccc32)cc1)Cc1cccs1 (stereo unspecified) |
| 111 to 113 °C | COc1ccnc(CSc2nc3cscc3n2COC(C)=O)c1 |
| 253 °C | O=C(O)CN1C(=S)c2cccc3c(Br)ccc1c23 |
| 95 °C | O=S(=O)(c1ccccc1)N1CCCC1c1ccc(C(F)(F)F)cc1 (racemic) |
| 46 to 47 °C | CC#CCOc1cc(C=O)ccc1OC(F)F |
| 137 °C | Fc1ccc(Cl)c(-c2c(Cl)nc3ncnn3c2Cl)c1 |
| 300 to 301 °C | NS(=O)(=O)c1cc2c(=O)[nH]ccc2s1 |
| 194 to 195 °C | Cc1cccc2c1NC(=O)c1cscc1O2 |
| 108 to 112 °C | COc1c(C)c2c(c(OS(=O)(=O)c3ccc(C)cc3)c1CC1=C(C)C(O)CC1)C(=O)OC2 (stereo unspecified) |

| melting point | SMILES |
| --- | --- |
| 145 to 150 °C | O=C(CN1CCN(C(CO)C(=O)O)CCN(C(CO)C(=O)O)CCN(C(CO)C(=O)O)CC1)NCCOCCO (stereo unspecified) |
| 124 to 125 °C | NC(=O)Cc1ccc2[nH]cc(CCNC(=O)OCc3ccccc3)c2c1 |
| 167 to 169 °C | CC(=O)c1c(O)ccc2c(C)cc(=O)oc12 |
| 259 to 260 °C | O=C1Nc2c(Br)cc(Br)c3cccc1c23 |
| 243 to 245 °C | COc1ccc(C2Sc3cc(Oc4ccc(Cl)cc4)ccc3NC(=O)C2O)cc1 (stereo unspecified) |
| 140 to 141 °C | CC(=O)Nc1ccc(OCC(F)(F)F)cc1 |
| 153 to 154 °C | CNC(=O)c1ccccc1I |
| 38.5 to 39 °C | COC(=O)Cc1c(Br)csc1Br |
| 126 to 129 °C | COc1cccc2c1CCc1c-2nc2ccccc2c1N |
| 205 to 210 °C | O=c1[nH]c(CO)nc2cc3c(cc12)CCC3 |
| 218 °C | CC(=NNC(=O)C1CC1)c1ccc(Cl)nc1 |
| 125 °C | N=c1sc2cc(OC(F)(F)F)ccc2n1CCSCc1ccccn1 |
| 157 to 158 °C | S=C=NC1(Br)C=Cc2nccnc2C1 (stereo unspecified) |
| 79 to 81 °C | N[C@@H](CCCCN=Cc1ccccc1)C(=O)O |
| 195 to 197 °C | Cc1c(O)ccc2c1CCCC2=O |
| 260 to 262 °C | CCn1cc(C(=O)O)c(=O)c2cc(F)c(N3CC(N)C3)nc21 |
| 201 to 203 °C | NNC(=O)c1ccc(OCc2cccc(Br)c2)cc1O |
| 154 °C | CCOC(=O)CCC1Cn2c(-c3ccc(OC)cc3)c(C)c3cccc(c32)O1 (stereo unspecified) |
| 220 to 222 °C | NS(=O)(=O)c1ccc(-c2cnn(Cc3cccc(F)c3)c(=O)c2-c2ccc(F)cc2)cc1 |
| 65 °C | CCCc1nc(C)nc(Cl)c1Cc1ccc([N+](=O)[O-])cc1 |
| 139 to 140 °C | C1=CN(Cc2ccccc2)CCC1c1cc2ccccc2o1 (stereo unspecified) |
| 85 to 86 °C | COc1ccccc1CN1CCc2cc(OCc3ccccc3)c(OC)cc2C1 |
| 72 to 74 °C | Cc1noc(C2CN=CN(C(c3ccccc3)(c3ccccc3)c3ccccc3)C2)n1 (stereo unspecified) |
| 110 to 117 °C | Cc1noc(C)c1-c1ccccc1OC1SCC(O)C(O)C1O (stereo unspecified) |
| 59 to 61 °C | COCC1OC(n2cnc3c(Cl)nc(Cl)nc32)C(OC(C)=O)C1OC(C)=O (stereo unspecified) |
| 193 to 195 °C | CSc1sc(-c2ccn(S(C)(=O)=O)n2)c2c1C(=O)CC(C)(C)C2 |
| 106 to 108 °C | CN(C)C(=O)N1CC(Oc2ccc(C(F)(F)F)cc2Cl)C1 |

| melting point | SMILES |
| --- | --- |
| 223 to 226 °C | Cn1cc(-c2ccccc2)c(=O)c(-c2c(Cl)cccc2Cl)c1 |
| 119 to 120 °C | CCOP(=O)(/C=C/c1cn(-c2ccccc2)nc1OCc1ccc(OCc2nc(-c3ccc(CC(=O)O)cc3)oc2C)c(OC)c1)OCC |
| 72 to 74 °C | COCCOc1ccc(C=O)c2cc3ccccc3cc12 |
| 125 °C | COC(=O)C(c1ccccc1)C1CCN(c2ccc(N)cc2)CC1 (stereo unspecified) |
| 74 to 76 °C | CC(NC(=O)OC(C)(C)C)C(=O)NO (stereo unspecified) |
| 280 to 282 °C | Cn1cnc(C=CC(=O)NC2CCNC(=O)C2)c1 (stereo unspecified) |
| 154 °C | CC(C)c1nc2c(cc1CO)COC(=O)N2c1ccc(F)cc1 |
| 168 to 170 °C | CNS(=O)(=O)c1cc(O)ccc1OC(=O)c1ccccc1 |
| 250 to 251 °C | O=C(O)CN1CCC(n2nc(-c3c(-c4ccccc4)nn4ccccc34)ccc2=O)C1=O (stereo unspecified) |
| 157 to 159 °C | Cc1nnc2ccc(-c3cccc(NC(C)C)c3)nn12 |
| 156 to 158 °C | O=C1CCCc2nc3cc(Cl)ccc3c(NCc3ccc(F)cc3)c21 |
| 186 to 188 °C | Cc1cc(SC(C)C)c(NC(=O)CN2CCN(CCSc3nc4ccccc4[nH]3)CC2)c(SC(C)C)n1 |
| 157 to 160 °C | O=C(CCCCc1cc(O)c(O)c([N+](=O)[O-])c1)NC12CC3CC(CC(C3)C1)C2 |
| 128 °C | O=c1n(Cc2ccccc2)c2cc(Cl)ccc2n1C1CCNCC1 |
| 79 to 80 °C | O=Cc1cc(Br)ccc1OCCc1ccccc1 |
| 172 to 173 °C | Cc1csc(-c2cc(C)cn2-c2ccc(S(N)(=O)=O)cc2)c1 |
| 108 to 109 °C | Cc1ccc(C2OC(=O)NC2=O)s1 (stereo unspecified) |
| 55 to 56.5 °C | COc1ccc2[nH]c(C)c(SC)c2c1 |
| 118 to 120 °C | O=C(C1=C(O)CCS1)c1nnn(Cc2ccccc2)c1Cl |
| 60 to 90 °C | CCCCNS(=O)(=O)CC(O)C(O)C(CC1CCCCC1)NC(=O)CC(CC)c1c[nH]cn1 (stereo unspecified) |
| 86 to 87 °C | COc1ccc2c(ccn2Cc2ccccc2Br)n1 |
| 89 °C | COC1(c2ccccc2)C=CC(=O)C=C1 |
| 49 to 51 °C | CCCCCCC[C@H](CC(=O)OC(C)(C)C)C(=O)N1C(=O)OC[C@@H]1C(C)C |
| 116 to 118 °C | N#Cc1ccc(NC(=O)C(F)(F)C(F)(F)C(F)(F)F)cc1 |
| 210 to 211 °C | O=C(O)Cc1c(-c2ccccc2)n[nH]c1-c1ccccc1 |
| 139 to 140 °C | CC(=O)c1ccc2c(c1)C(=O)C1(CCOC1=O)S2 (stereo unspecified) |
| 222 to 224 °C | S=c1c2c(ncn2Cc2cccnc2)c2cccnc2n1-c1ccccc1 |

| melting point | SMILES |
| --- | --- |
| 97 to 98 °C | CCC(CC)NC(=O)c1ccc(-c2scc(Br)c2CC(=O)OC)cc1 |
| 103 to 106 °C | Cc1cccc(-c2[nH]c(C(C)C)nc2-c2ccc(F)c(-c3ccc[nH]3)c2)n1 |
| 250 to 251 °C | O=C1CCCC2=C1C(c1cccc(C(F)(F)F)c1)C1=C(CCCC1)N2 (stereo unspecified) |
| 206 °C | Nc1nc(NCCN2CCC(NC3(Cc4ccc(F)cc4)Nc4ccccc4N3)CC2)ccc1[N+](=O)[O-] |
| 137 to 140 °C | O=C(O)CCCOC(c1ccccc1)(c1ccccc1)c1ccccc1 |
| 106 to 108 °C | COCOc1ccc(COc2cc3c(cc2-c2cc(C=CC(=O)O)ccc2OC)C(C)(C)CCC3(C)C)cc1 |
| 85 to 87 °C | Cc1nccc(OCc2ccccc2)c1OCc1ccccc1 |
| > 300 °C | O=c1[nH]cnc2cc[nH]c12 |
| 267 to 268 °C | CCCC(=O)N1CCc2cc(S(=O)(=O)N3CCN(c4cccc(Cl)c4)CC3)ccc21 |
| 140 to 142 °C | NC(=O)CN1C(=O)C[C@@H]2CCCCC[C@@H]21 (relative stereo) |
| 217 to 220 °C | O=C(Nc1ccccc1)C1=CCN(Cc2c[nH]c3ncccc23)CC1 |
| 291 °C | CCC(=O)Nc1ccc2c(c1)C(=O)c1cc(NC(=O)CC)ccc1C2=O |
| 181 to 183 °C | O=P(O)(O)C(F)(F)c1ccc(CN(Cc2ccc(C(F)(F)P(=O)(O)O)cc2)S(=O)(=O)CCc2ccccc2)cc1 |
| 53 to 54 °C | CCN(CCO)c1ccc(I)cc1 |
| 170 to 172 °C | O=C(/C=C/c1cccnc1)NCCc1ccccc1O |
| 158 to 160 °C | COc1ccc(CBr)cc1-c1nsc2ccc(-n3c(=O)cc(C(F)(F)F)n(C)c3=O)cc12 |
| 224 to 226 °C | NC(=O)C1=CCCc2cc(Sc3ccccc3)cc(F)c21 |
| 147 to 148 °C | Cc1cc(Cl)ccc1OCC(=O)N1CCSC1C(=O)O (stereo unspecified) |
| 136 to 137 °C | CCOCCCNC(=O)Nc1ccccc1CCc1cc(C(C)(C)C)c(O)c(C(C)(C)C)c1 |
| 170 to 172 °C | O=C1Nc2ccccc2N(C(=O)CCN2CCCCC2)c2ccc(Cl)cc21 |
| 63 to 65 °C | N#CCCN(CCC#N)CCN(CCC#N)CCC#N |
| 89 to 90 °C | O=C1C2=C(CCCC2)C(Cl)N1c1ccc(Cl)cc1F (stereo unspecified) |
| 90 to 91 °C | COc1cc(COc2nn(Cc3cccnc3)cc2CO)ccc1OCc1nc(-c2ccco2)oc1C |
| 41 to 42.5 °C | Cc1ccc(-c2nc(CCCC#N)c(C(F)(F)F)o2)cc1 |

| SMILES | melting point |
| --- | --- |
| CN1Cc2c(C=O)ncn2-c2cccc(Cl)c2C1=O | 204 to 205 °C |

From a melting point compilation (Tetko et al.; mined from patent text by program, amines drawn as free bases though some values may be those of a salt)
